Test results: patent US20160106719A1, “Transplantation Adjuvant in Cell Therapy Using Neural Progenitor Cells” (SUMITOMO DAINIPPON PHARMA CO., LTD., priority 2013, published 2016)

Tested on: re-aggregated PSA-NCAM+ cells (neural progenitor cells derived from mouse iPS cell line 440A3)
Test: In vitro differentiation of mouse iPS cell-derived neural progenitor cells into dopaminergic neurons (immunocytochemistry for marker molecules)
Type: cell-based
Conditions: for ratio of TH+ cells: day 10 to 14, control 5.2±1.1%
Description: DMEM contained 1% fetal bovine serum (FBS), 5% knockout serum replacement (KSR; manufactured by Invitrogen), 0.1 mM non-essential amino acids, 1 mM sodium pyruvate, 0.1 mM 2-mercaptoethanol (2-ME; manufactured by Invitrogen), 2000 U/ml leukemia inhibitory factor (manufactured by Invitrogen), and 1.5 μg/ml puromycin. In order to differentiate and induce the iPS cells into neural cells, serum-free floating culture of embryoid bodies-like aggregates (SFEB) was employed. Specifically, aggregates of the 440A3 cells were separated into individual cells by using 0.25% trypsin/1 mM EDTA (ethylenediaminetetraacetic acid), and the resultant cells were seeded in a 96-well low adhesion plate (product name: Lipidure-Coat Plate A-US96, manufactured by NOF Corporation) at a concentration (cell density) of 3000 cells/well. Thereafter, re-aggregation of the 440A3 cells was induced in a differentiation medium containing GMEM (Glasgow Minimum Essential Medium), 5% KSR, 0.1 mM non-essential amino acids, 1 mM sodium pyruvate and 0.1 mM 2-ME, and this day was defined as day 0 (FIG. 1). During this differentiation process, various factors were added to the differentiation medium for inducing midbrain dopaminergic phenotypes as illustrated in FIG. 1. Specifically, from day 3 to day 7 after starting the SFEB, 20 ng/ml of mouse FGF-8b (manufactured by R & D Systems) was added, from day 4 to day 7 after starting the SFEB, 10 ng/ml of recombinant mouse sonic hedgehog (C25I1) N-terminus (manufactured by R & D Systems) was added, and on and after day 7 after starting the SFEB, 1% N-2 supplement (manufactured by Gibco) and 200 nM ascorbic acid were added. The KSR was removed from the differentiation medium on day 7 after starting the SFEB.
On day 9 after starting the SFEB, the 440A3 cells were washed with phosphate buffered saline (PBS(-)) twice. Thereafter, the 440A3 cells were dissociated into single cells by five-minute incubation performed at 37° C. by using Accumax (manufactured by Innovate Cell Technologies, product name). The cells were collected with a FACS buffer. The FACS buffer was constituted by PBS(-) containing 2% FBS, 20 mM D-glucose and 1% penicillin/streptomycin (P/S, manufactured by Invitrogen). The collected cells were mechanically dissociated into a single cell suspension by a gentle pipetting operation.
Next, the resultant cells were incubated with a mouse anti-PSA-NCAM antibody (dilution rate of 1:200, manufactured by Millipore) at 4° C. for about 30 minutes. Thereafter, a washing operation using a centrifuge was performed twice, and the resultant cells were further incubated for 30 minutes with a secondary antibody of a donkey anti-mouse IgG (dilution rate of 1:400, manufactured by Invitrogen) labeled with AlexaFluor 594. Dead cells and cell debris were excluded by using 7-aminoactinomycin-D (7-AAD, manufactured by BD Pharmigen) stain. The remaining living cells were suspended again at a final concentration (cell density) of 1×10^7 cells/ml. Cell sorting was conducted by using a FACSAria II cell sorter (manufactured by Becton Dickinson And Company) equipped with a 488 nm argon laser, a 633 nm helium-neon laser, a 100 μm nozzle and a FACSDiva software program. A PSA-NCAM positive rate was determined on the basis of a negative control not using a primary antibody.
After the cell sorting, in order to induce the reaggregation of the cells, a PSA-NCAM^+ cell group was seeded in a DMEM/F12 medium (manufactured by Wako Pure Chemical Industries, Ltd.) in a 96-well plate at a concentration (cell density) of 20000 cells/well. The DMEM/F12 medium contained 1% N-2 supplement, 200 nM ascorbic acid, 2% B27 supplement (manufactured by Invitrogen), 0.5 mM L-glutamine and 1% P/S. In order to prevent apoptosis, a ROCK inhibitor, Y-27632 (manufactured by Wako Pure Chemical Industries, Ltd.), was used at a concentration of 30 μM during the cell sorting process and the following overnight cultivation. […]

Compound: CCCC(CCC)C(=O)[O-].[Na+] [VPA, sodium 2-propylpentanoate]
- ratio of TH+ cells (VPA 0.01 mM): 12.1±1.5%
- ratio of TH+ FOXA2+ cells (VPA 0.1 mM, control 0.25±0.22%): 1.00±0.58%
- ratio of TH+ NURR1+ cells (VPA 0.1 mM, control 0.37±0.32%): 1.00±0.70%
- ratio of TH+ cells (VPA 0.1 mM): 11.7±0.4%
